Test results taken from publication PMC2217457 (The Journal of General Physiology, 2004).

Assays:
mouse AChR αV46A = test: Single-channel kinetics, αV46A AChR; format: cell-based
mouse AChR αV46E = test: Single-channel kinetics, αV46E AChR; format: cell-based
mouse AChR αP120G = test: Single-channel kinetics, αP120G AChR; format: cell-based; conditions: clusters at different concentrations of ACh
mouse AChR αS126V = test: Single-channel kinetics, αS126V AChR; format: cell-based; conditions: clusters at different concentrations of ACh
mouse AChR αS126A = test: Single-channel kinetics, αS126A AChR; format: cell-based; conditions: clusters at different concentrations of ACh
[1] = biological target: T1, mouse muscle-type AChR wild-type (Mus musculus, UniProt P02716+P04756+P20782); conditions: wt AChR
T1 sequence (P04756 21-457): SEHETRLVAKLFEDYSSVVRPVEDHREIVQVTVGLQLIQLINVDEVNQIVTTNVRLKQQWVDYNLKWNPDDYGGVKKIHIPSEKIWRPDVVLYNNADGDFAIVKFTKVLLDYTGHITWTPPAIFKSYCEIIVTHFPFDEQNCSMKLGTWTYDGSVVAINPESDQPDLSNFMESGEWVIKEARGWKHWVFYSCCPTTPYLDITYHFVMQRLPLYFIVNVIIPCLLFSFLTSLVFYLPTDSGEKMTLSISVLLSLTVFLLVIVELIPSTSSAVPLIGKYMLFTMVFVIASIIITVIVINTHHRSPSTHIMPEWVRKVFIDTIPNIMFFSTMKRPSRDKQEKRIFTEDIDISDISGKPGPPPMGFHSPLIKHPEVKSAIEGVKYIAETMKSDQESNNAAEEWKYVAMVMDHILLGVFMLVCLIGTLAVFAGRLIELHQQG
T1 sequence (P09690 24-501 partner): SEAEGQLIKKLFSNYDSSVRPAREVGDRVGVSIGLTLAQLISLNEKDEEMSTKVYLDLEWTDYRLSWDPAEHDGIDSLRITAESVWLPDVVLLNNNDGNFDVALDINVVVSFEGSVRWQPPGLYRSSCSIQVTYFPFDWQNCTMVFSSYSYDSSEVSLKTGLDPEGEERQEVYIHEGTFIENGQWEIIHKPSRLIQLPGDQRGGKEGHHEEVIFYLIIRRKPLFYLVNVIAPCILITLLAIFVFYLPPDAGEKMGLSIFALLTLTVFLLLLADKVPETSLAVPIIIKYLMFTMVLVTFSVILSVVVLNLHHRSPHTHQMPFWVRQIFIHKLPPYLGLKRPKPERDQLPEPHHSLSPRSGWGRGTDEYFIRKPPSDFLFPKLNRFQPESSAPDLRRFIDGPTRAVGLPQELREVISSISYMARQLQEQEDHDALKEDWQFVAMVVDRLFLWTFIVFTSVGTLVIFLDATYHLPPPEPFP
T1 sequence (P02716 25-520): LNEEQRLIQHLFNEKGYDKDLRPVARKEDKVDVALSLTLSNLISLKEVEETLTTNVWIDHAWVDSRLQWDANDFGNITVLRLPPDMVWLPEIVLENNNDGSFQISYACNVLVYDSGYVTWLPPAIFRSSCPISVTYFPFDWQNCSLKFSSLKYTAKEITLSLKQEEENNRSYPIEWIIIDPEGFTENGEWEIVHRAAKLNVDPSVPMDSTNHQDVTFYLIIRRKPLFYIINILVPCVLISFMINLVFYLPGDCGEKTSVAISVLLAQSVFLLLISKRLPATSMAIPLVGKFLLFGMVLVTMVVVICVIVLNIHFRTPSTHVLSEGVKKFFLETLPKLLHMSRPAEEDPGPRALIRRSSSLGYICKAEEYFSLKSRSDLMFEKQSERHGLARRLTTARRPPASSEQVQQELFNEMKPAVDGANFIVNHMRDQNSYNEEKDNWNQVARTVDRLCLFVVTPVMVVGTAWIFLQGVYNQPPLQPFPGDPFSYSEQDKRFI
T1 sequence (P20782 21-493): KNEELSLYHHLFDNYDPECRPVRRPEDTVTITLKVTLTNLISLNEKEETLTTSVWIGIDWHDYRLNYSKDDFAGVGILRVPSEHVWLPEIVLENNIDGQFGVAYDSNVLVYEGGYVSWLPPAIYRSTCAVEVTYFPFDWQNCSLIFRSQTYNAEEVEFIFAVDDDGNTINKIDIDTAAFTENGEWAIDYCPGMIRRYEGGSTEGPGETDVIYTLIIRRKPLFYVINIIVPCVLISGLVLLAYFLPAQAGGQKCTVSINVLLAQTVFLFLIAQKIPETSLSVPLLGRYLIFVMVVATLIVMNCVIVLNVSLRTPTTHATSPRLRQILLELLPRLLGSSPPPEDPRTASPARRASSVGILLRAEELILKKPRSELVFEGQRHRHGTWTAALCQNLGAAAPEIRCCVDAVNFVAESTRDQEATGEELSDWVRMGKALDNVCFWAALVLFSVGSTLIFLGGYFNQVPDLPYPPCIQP

mouse AChR αR20L = conditions: 0.4 mM choline
mouse AChR αR55A = conditions: 20 mM choline
mouse AChR αR55W = conditions: 20 mM choline
[2] = biological target: T1, mouse muscle-type AChR wild-type; conditions: wt AChRs; ref Zhou et al., 1999; Grosman and Auerbach, 2000a; cited from earlier work

CC(=O)OCC[N+](C)(C)C [ACh, acetylcholine]
α2 ACh (diliganded channel-closing rate constant) (mouse AChR αV46A; low ACh): 4,135 s^−1 | β2 ACh (diliganded channel-opening rate constant) (mouse AChR αV46A; saturating ACh): 1,340 s^−1 | α2 ACh (diliganded channel-closing rate constant) (mouse AChR αV46E; low ACh): 6,613 s^−1 | β2 ACh (diliganded channel-opening rate constant) (mouse AChR αV46E; saturating ACh): 795 s⁻¹ | α2 ACh (diliganded channel-closing rate constant) (mouse AChR αP120G): 2,006 | β2 ACh (diliganded channel-opening rate constant) (mouse AChR αP120G): 49,531 | α2 ACh (diliganded channel-closing rate constant) (mouse AChR αS126V): 1,770 | β2 ACh (diliganded channel-opening rate constant) (mouse AChR αS126V): 40,253 | α2 ACh (diliganded channel-closing rate constant) (mouse AChR αS126A): 2,598 | β2 ACh (diliganded channel-opening rate constant) (mouse AChR αS126A): 48,918

C[N+](C)(C)CCO [Choline, choline]
α2 Choline (diliganded channel-closing rate constant) ([1]; 0.4 mM choline): 2,100 s^−1 | β2 Choline (diliganded channel-opening rate constant) ([1]; 20 mM choline): 100 s⁻¹ | α2 Choline (diliganded channel-closing rate constant) (mouse AChR αV46I; 0.4 mM choline): 1,982 s^−1 | β2 Choline (diliganded channel-opening rate constant) (mouse AChR αV46I; 20 mM choline): 249 s⁻¹ | α2 Choline (diliganded channel-closing rate constant) (mouse AChR αN47A; 0.4 mM choline): 1,450 s^−1 | β2 Choline (diliganded channel-opening rate constant) (mouse AChR αN47A; 20 mM choline): 933 s⁻¹ | α2 Choline (diliganded channel-closing rate constant) (mouse AChR αN47K; 0.4 mM choline): 2,371 s^−1 | β2 Choline (diliganded channel-opening rate constant) (mouse AChR αN47K; 20 mM choline): 607 s⁻¹ | α2 Choline (diliganded channel-closing rate constant) (mouse AChR αQ48A; 0.4 mM choline): 10,271 s^−1 | β2 Choline (diliganded channel-opening rate constant) (mouse AChR αQ48A; 20 mM choline): 2,836 s^−1 | α2 Choline (diliganded channel-closing rate constant) (mouse AChR αF137M; 0.4 mM choline): 1,017 s^−1 | β2 Choline (diliganded channel-opening rate constant) (mouse AChR αF137M; 20 mM choline): 225 s⁻¹ | α2 Choline (diliganded channel-closing rate constant) (mouse AChR αD138E; 0.4 mM choline): 1,456 s^−1 | β2 Choline (diliganded channel-opening rate constant) (mouse AChR αD138E; 20 mM choline): 239 s⁻¹ | α2 Choline (diliganded channel-closing rate constant) (mouse AChR αN141V; 0.4 mM choline): 1,389 s^−1 | β2 Choline (diliganded channel-opening rate constant) (mouse AChR αN141V; 20 mM choline): 260 s⁻¹ | α2 Choline (diliganded channel-closing rate constant) (mouse AChR αR20L): 2,119 | α2 Choline (diliganded channel-closing rate constant) (mouse AChR αV29L; 0.4 mM choline): 2,644 | β2 Choline (diliganded channel-opening rate constant) (mouse AChR αV29L; 20 mM choline): 200 | α2 Choline (diliganded channel-closing rate constant) (mouse AChR αL35A; 0.4 mM choline): 2,423 | β2 Choline (diliganded channel-opening rate constant) (mouse AChR αL35A; 20 mM choline): 182 | α2 Choline (diliganded channel-closing rate constant) (mouse AChR αL40A; 0.4 mM choline): 1,629 | β2 Choline (diliganded channel-opening rate constant) (mouse AChR αL40A; 20 mM choline): 312 | α2 Choline (diliganded channel-closing rate constant) (mouse AChR αV54L; 0.4 mM choline): 1,340 | β2 Choline (diliganded channel-opening rate constant) (mouse AChR αV54L; 20 mM choline): 124 | β2 Choline (diliganded channel-opening rate constant) (mouse AChR αR55A): 164 | β2 Choline (diliganded channel-opening rate constant) (mouse AChR αR55W): 98.2 | α2 Choline (diliganded channel-closing rate constant) (mouse AChR αL56A; 0.4 mM choline): 2,707 | β2 Choline (diliganded channel-opening rate constant) (mouse AChR αL56A; 20 mM choline): 217 | α2 Choline (diliganded channel-closing rate constant) (mouse AChR αL65V; 0.4 mM choline): 2,166 | β2 Choline (diliganded channel-opening rate constant) (mouse AChR αL65V; 20 mM choline): 124 | α2 Choline (diliganded channel-closing rate constant) (mouse AChR αL110V; 0.4 mM choline): 1,874 | β2 Choline (diliganded channel-opening rate constant) (mouse AChR αL110V; 20 mM choline): 70 | α2 Choline (diliganded channel-closing rate constant) (mouse AChR αI116A; 0.4 mM choline): 2,238 | β2 Choline (diliganded channel-opening rate constant) (mouse AChR αI116A; 20 mM choline): 110 | α2 Choline (diliganded channel-closing rate constant) (mouse AChR αA122L; 0.4 mM choline): 2,142 | β2 Choline (diliganded channel-opening rate constant) (mouse AChR αA122L; 20 mM choline): 358 | α2 Choline (diliganded channel-closing rate constant) (mouse AChR αS143T; 0.4 mM choline): 2,200 | β2 Choline (diliganded channel-opening rate constant) (mouse AChR αS143T; 20 mM choline): 118 | α2 Choline (diliganded channel-closing rate constant) (mouse AChR αS143A; 0.4 mM choline): 3,054 | β2 Choline (diliganded channel-opening rate constant) (mouse AChR αS143A; 20 mM choline): 79 | α2 Choline (diliganded channel-closing rate constant) (mouse AChR αM144L; 0.4 mM choline): 2,911 | β2 Choline (diliganded channel-opening rate constant) (mouse AChR αM144L; 20 mM choline): 917 | α2 Choline (diliganded channel-closing rate constant) (mouse AChR αM144T; 0.4 mM choline): 1,180 | β2 Choline (diliganded channel-opening rate constant) (mouse AChR αM144T; 20 mM choline): 54 | α2 Choline (diliganded channel-closing rate constant) (mouse AChR αM144I; 0.4 mM choline): 2,823 | β2 Choline (diliganded channel-opening rate constant) (mouse AChR αM144I; 20 mM choline): 93 | α2 Choline (diliganded channel-closing rate constant) (mouse AChR αM144A; 0.4 mM choline): 2,514 | β2 Choline (diliganded channel-opening rate constant) (mouse AChR αM144A; 20 mM choline): 64 | α2 Choline (diliganded channel-closing rate constant) (mouse AChR αL146M; 0.4 mM choline): 2,435 | β2 Choline (diliganded channel-opening rate constant) (mouse AChR αL146M; 20 mM choline): 118 | α2 Choline (diliganded channel-closing rate constant) (mouse AChR αL146F; 0.4 mM choline): 2,234 | β2 Choline (diliganded channel-opening rate constant) (mouse AChR αL146F; 20 mM choline): 97 | diliganded gating equilibrium constant, times smaller than ACh [2]: 500 times
